The text below walks through data of PubChem BioAssay AID2060624 (Molecular Pharmacology Branch, DTP, NCI, 2025).

Values joined by “and” are separate entries in the source; they are usually repeats but may differ in a detail not shown here. Equal values may be shown once.

This assay relates to 217524-143-R1-J4-PDC spheroids with HUVEC/MSC, viability. The assay is described as follows: Anticancer human tumor 217524-143-R1-J4-PDC patient-derived pancreatic carcinoma cell line growth inhibition [CLK]. Particulars: for viability, T/C: stronger effect = lower value. The source says:
A high-throughput screen of multi-cell type tumor spheroids was designed to identify active combinations of […] and targeted small molecules. Complex spheroids include a stromal component modeled by human endothelial cells (HUVEC) and fibroblasts modeled by human mesenchymal stem cells (MSCs). The concentration ranges selected for each drug and investigational agent were based upon clinically achievable concentrations if the clinical Cmax of the agent was known.
Compounds. The drugs and investigational agents: cirtuvivint (SM08502; NSC835563), CC-671 (NSC850746), vemurafenib (NSC761431), tapotoclax (NSC804041), sotorasib (NSC818433), adagrasib (NSC831453), MRTX-1133 (NSC836407), BAY2416964 (NSC825713), copanlisib (NSC816437), inavolisib (NSC800729), abemaciclib (NSC768073), osimertinib (NSC779217), entinostat (NSC756642), eltanexor (KPT-8602, NSC794443), venetoclax (NSC766270), ceralasertib (NSC777638), bortezomib (NSC756655), olaparib (NSC753686), talazoparib (NSC767125), alisertib (NSC759677), peposertib (NSC802822), gemcitabine (NSC613327), 5-fluorouracil (NSC19893), SN-38 (NSC673596), oxaliplatin (NSC266046), paclitaxel (NSC125973), and doxorubicin (NSC123127), were obtained from the National Cancer Institute (NCI) Developmental Therapeutics Program Chemical Repository. The FDA-approved anticancer drug set is available from the Developmental Therapeutics Program at https://dtp.cancer.gov/organization/dscb/obtaining/available plates.htm. […] The stock solutions were prepared in dimethyl sulfoxide (DMSO, Sigma-Aldrich, St. Louis, MO, cat. D2650), except for the platinum complexes which were prepared in saline (Quality Biological, Gaithersburg, MD, cat. 114-055-101), at 800-fold the tested concentration and stored at -70 degrees C prior to their use. All drugs and investigational agents were tested over a range starting from a high concentration at or near the clinical Cmax and decreasing in half-log increments. If the clinical Cmax for an agent had not been determined, the highest concentration tested was 10 microM.
Cell Culture. All cells were maintained in an incubator at 37 degrees C and 5% CO2 with 95% humidity. The PDC lines were cultured according to standard operating procedures established by the NCI PDMR. Briefly, all PDCs were thawed and cultured in Matrigel-coated flasks prepared with a working solution of 1X Ham's F-12 nutrient mix, without supplementation (Invitrogen, Waltham, MA, cat. 11765054), 100 U/mL penicillin-streptomycin (Invitrogen, cat. 15140122), and 2.5% Matrigel (Corning Inc., Corning, NY, cat. 354248) for the first three passages. The 947758-054-R-J2-PDC line was cultured in 6B/Colon 1A media, which includes advanced DMEM/F-12 (Thermo Fisher Scientific, cat. 12634028), 10 mM HEPES (Thermo Fisher Scientific, cat. 15630080), 1X GlutaMAX supplement (Thermo Fisher Scientific, cat. 35050061), 0.1 mg/mL primocin (InvivoGen, cat. ant-pm-2), 10% defined fetal bovine serum, heat inactivated (HyClone Laboratories Inc., cat. SH30070.03HI), 1.25 mM N-Acetyl-L-cysteine (Sigma-Aldrich, cat. A9165), 10 mM nicotinamide (Sigma-Aldrich, cat. N0636), 1X B-27 supplement (Thermo Fisher Scientific, cat. 17504044), 1X N-2 supplement (Thermo Fisher Scientific, cat. 17502048), and 10 microM Y-27632 dihydrochloride (Tocris Bioscience, cat. 1254). The 876862-298-R-J1-PDC was cultured in 6E media, which includes all 6B/Colon 1A media components plus 50% L-WRN conditioned media (ATCC, cat. CRL-3276), 50 ng/mL recombinant human EGF recombinant protein (hEGF; Thermo Fisher Scientific, cat. PHG0311), 10 ng/mL recombinant human fibroblast growth factor 10 (hGFG-10; PeproTech, cat. 100-26), 1 ng/mL recombinant human fibroblast growth factor 2 (hFGF-2; PeproTech, cat. 100-18B), and 1 µM prostaglandin E2 (PGE2; Tocris, cat. 2296). The 227483-062-R1-J1-PDC line was cultured in Panc media, containing all 6E components except hFGF-2, with the addition of 500 nM SB-431542 (Selleckchem, cat. S1067) and 10 nM gastrin (Tocris, cat. 3006). […]
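Also: spheroids exposed to agents for seven days before reading.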

Broadly, the viability, T/C is the result in the treated group divided by that in the control group, in per cent. As a reminder, the IC50 is the midpoint of a concentration-inhibition curve. On to `CC(=O)O[C@H]1C(=O)[C@@]2(C)[C@H]([C@H](OC(=O)c3ccccc3)[C@]3(O)C[C@H](OC(=O)[C@H](O)[C@@H](NC(=O)c4ccccc4)c4ccccc4)C(C)=C1C3(C)C)[C@]1(OC(C)=O)CO[C@@H]1C[C@@H]2O`, for which the viability, T/C (compound 0.0316 µM) is 12.7% and 12%; the viability, T/C (compound 0.1 µM) is 12.4% and 12.9%; the viability, T/C (compound 0.316 µM) is 10.1% and 12.3%; the viability, T/C (compound 1 µM) is 9.86% and 10.8%; the viability, T/C (compound 3.16 µM) was 13.6% and 14.1%; the viability, T/C (compound 10 µM) is 16% and 16.4%. Further, where the note is “curve of compound”, the IC50 is below 31.6 nM.
Regarding `CC1(C)CCC(CN2CCN(c3ccc(C(=O)NS(=O)(=O)c4ccc(NCC5CCOCC5)c([N+](=O)[O-])c4)c(Oc4cnc5[nH]ccc5c4)c3)CC2)=C(c2ccc(Cl)cc2)C1`, the viability, T/C is 121% and 110% (compound 0.0316 µM); 89.1% and 75.1% (compound 0.1 µM); 99.5% and 103% (compound 0.316 µM); 89.8% and 80.3% (compound 1 µM); 101% and 86.2% (compound 3.16 µM); 10.7% and 79.9% (compound 10 µM). Further, the half-inhibitory concentration (IC50) (curve of compound) is 6030 nM and > 10000 nM.
For the compound `CC1COCCN1c1cc(C2(S(C)(=N)=O)CC2)nc(-c2ccnc3[nH]ccc23)n1` (configuration not stated), the viability, T/C reads like this: (compound 0.0316 µM) 102% and 109%; (compound 0.1 µM) 94.1% and 75.7%; (compound 0.316 µM) 87.9% and 82.8%; (compound 1 µM) 89.5% and 69.8%; (compound 3.16 µM) 35.7% and 35%; (compound 10 µM) 21.4% and 20.1%. For the same compound, the IC50 (curve of compound) is 2330 nM and 1890 nM.
For `CN1CCN(c2cc(C(=O)Nc3cc4cc(-c5cnn(C)c5)ccc4cn3)ccn2)CC1`, the viability, T/C (compound 0.1 µM) was 54.9% [middle of 12 runs]; the viability, T/C (compound 0.316 µM) was 21.7% [middle of 12 runs]; the viability, T/C (compound 1 µM) is 1.79% [middle of 12 runs]; the viability, T/C (compound 3.16 µM) was 0.9% [middle of 12 runs]; the viability, T/C (compound 10 µM) is 0.22% [middle of 9 runs]. Moreover, under “compound alone, run of 07/31/2023”, the IC50 is 119 nM [middle of 12 runs].
Regarding `COc1ccc([C@@H](O)c2cc(-c3ncnc4cc(N5CCOCC5)ccc34)c(F)cc2Cl)nn1`, the viability, T/C is 100% and 86.5% (compound 0.0316 µM); 68.5% and 86.3% (compound 0.1 µM); 58.5% and 56.8% (compound 0.316 µM); 52.6% and 42.2% (compound 1 µM); 34.3% and 27.2% (compound 3.16 µM); 10.5% and 11.7% (compound 10 µM). Moreover, the IC50 (curve of compound) is 756 nM and 632 nM.
As for `COc1cccc2c1C(=O)c1c(O)c3c(c(O)c1C2=O)CC(O)(C(=O)CO)CC3OC1CC(N)C(O)C(C)O1` (configuration not stated), the viability, T/C was 36.9% and 42.6% (compound 0.0316 µM); 24.5% and 29.6% (compound 0.1 µM); 26.5% and 27.4% (compound 0.316 µM); 16.9% and 18.4% (compound 1 µM); 3.52% and 3.31% (compound 3.16 µM); 1.28% and 0.73% (compound 10 µM). Also, the IC50 (curve of compound) was below 31.6 nM.
Take `Nc1ccn(C2OC(CO)C(O)C2(F)F)c(=O)n1` (configuration not stated): the viability, T/C is, setting by setting: (compound 0.0316 µM) 53.5% and 66.5%; (compound 0.1 µM) 28.6% and 26%; (compound 0.316 µM) 22.5% and 22.4%; (compound 1 µM) 24.3% and 26%; (compound 3.16 µM) 25.1% and 29.9%; (compound 10 µM) 29.4% and 29.8%. Moreover, the IC50 (curve of compound) was 37.1 nM and 51.3 nM.
With `O=C(c1cc(Cc2n[nH]c(=O)c3ccccc23)ccc1F)N1CCN(C(=O)C2CC2)CC1`, the viability, T/C is 100% and 92.1% (compound 0.0316 µM); 81.1% and 72% (compound 0.1 µM); 103% and 91.9% (compound 0.316 µM); 89.3% and 89.4% (compound 1 µM); 96.2% and 123% (compound 3.16 µM); 86.3% and 79.1% (compound 10 µM). The half-inhibitory concentration (IC50) (curve of compound) was above 10000 nM.
As for `O=c1[nH]cc(F)c(=O)[nH]1`, the viability, T/C reads like this: (compound 0.0316 µM) 94.6% and 72.3%; (compound 0.1 µM) 93.9% and 80.7%; (compound 0.316 µM) 56.5% and 62.8%; (compound 1 µM) 38% and 36.6%; (compound 3.16 µM) 36.2% and 32.5%; (compound 10 µM) 29.7% and 25.7%. Also, under “curve of compound”, the IC50 is 457 nM and 563 nM.
